Here are results for 18 compounds from PMC12518634, “The noncanonical function of liver-type phosphofructokinase potentiates the efficacy of HDAC inhibitors in cancer” (Signal Transduction and Targeted Therapy, 2025).

pEC50: −log10 of the molar value. Read-outs that look alike come from different tables or passages of the source.

The subject of one test is 1405R3. Description: High-throughput drug screen, CellTiter-Glo viability, 72 h. It is filed as cell-based, human. Also on record: AUC: scale not given here. Conditions: 1405R3 DSRT analysis; for AUC: area under the dose-response curve; for MIN: lower asymptote of fitted dose-response curve; for SLOPE: slope of fitted dose-response curve; for pEC50: fitted dose-response curve, Min.Conc.tested 1, Max.Conc.tested 10000, CellTiter-Glo, 72 h, read-out: EC50. As for the experimental part: (§1) The cells were seeded and incubated with a gradient of concentrations of drugs for 72 h, after which the cell viability was assessed (Supplementary Fig. 1a). The drug library primarily comprises epigenetic drugs, including HDAC inhibitors, DNA methyltransferase inhibitors, and histone demethylase inhibitors, as well as conventional chemotherapies and kinase inhibitors (Supplementary Fig. 1b and Supplementary Table 1). […] To identify novel therapeutics against CCA, we conducted a high-throughput screen employing PerkinElmer’s integrated robotic Explorer G3 workstations. […] Following dilution to five specified concentrations, drugs were dispensed into 96-well plates in the sequence detailed in Supplementary Fig. 1a. The CCA cell lines were subsequently plated in 384-well plates at a density of 3000 cells per well in a 20 μL total volume. After a 24-h incubation, the compounds were added to the wells and incubated for 72 h. We then quantified cell viability via the CellTiter-Glo luminescent assay according to the manufacturer’s protocol. Signal detection was carried out on a Synergy2 plate reader operated by Gen5 software (BioTek). For data processing, the raw luminescence data were processed through the Breeze pipeline for curve fitting, yielding quality control metrics (e.g., Z-factors) and drug response parameters (AUC and DSS), as adapted from previous work.[54] Drug responses were evaluated on the basis of the drug sensitivity score (DSS), and a cutoff of ≥10 was used to define efficacy. The complete drug library and screening dataset are available in Supplementary Tables 1-3.
(§2) Supplementary Fig. 1. A high-throughput drug screen to identify drugs targeting CCA. a Schematic representation of the drug screening protocol. […] Each drug was tested at five different concentrations (10, 1, 0.1, 0.01, and 0.001 μM), and each treatment was replicated twice. b Classification of drugs used for screening.
(In general: Cellular ATP, detected with luciferase, serves as a proxy for viable cell number.)

The next test concerns 783C-6. The test is described as above. It is filed as cell-based, human. Also on record: AUC: scale not given here. Conditions: for DSS: DSS calculated from the dose-response curve; for MIN: MIN of the fitted dose-response curve; for AUC: area under the dose-response curve; for SLOPE: slope of the fitted dose-response curve; for pEC50: 72 h, read-out: EC50. As for the experimental part:
as §1, §2

Where [1] appears, read: 783C-6 DSRT analysis, CellTiter-Glo viability, fitted dose-response curve, Min.Conc.tested 1, Max.Conc.tested 10000.

For the compound `c1cncc(-c2cn[nH]n2)c1` [3-TYP], in the test with 1405R3, the DSS is 0, the AUC came out at 4.8, the MIN worked out at 96.9 and the SLOPE is on record as -0.1. Moreover, in the test on 783C-6 (783C-6 DSRT analysis), the DSS is reported as 0, the MIN is listed as 94.7, the AUC is 2.5 and the SLOPE is on record as -0.6.

`Cn1cc(-c2ccc(S(=O)(=O)n3ccc(/C=C/C(=O)Nc4ccccc4N)c3)cc2)cn1` [4SC-202]: in the test with 1405R3, the DSS was 3.9; the AUC turned out to be 35.8; the negative logarithm of the EC50 (pEC50) – broadly, −log10 of the EC50, conventionally taken in molar units – was 5.85; the MIN is reported as 57.9. The SLOPE in the test with 1405R3 is -2.3. Moreover, the negative-log EC50 (pEC50) in the test with 783C-6 (setting [1]) was 6.11. Also, in the test on 783C-6 (783C-6 DSRT analysis), the DSS is 6.7, the MIN is 48.6, the AUC is recorded as 57 and the SLOPE is reported as -2.5.

In the case of `O=C(O[C@@H]1Cc2c(O)cc(O)cc2O[C@@H]1c1cc(O)c(O)c(O)c1)c1cc(O)c(O)c(O)c1` [(-)-Epigallocatechin Gallate], in the test with 1405R3, the DSS came to 0, the AUC was found to be 0.7 and the MIN was 97.6. In the test with 783C-6 (783C-6 DSRT analysis), the DSS is recorded as 0, the MIN is given as 75.7 and the AUC was found to be 22.9.

Consider `O=C(NO)c1cnc(NC2(c3ccccc3)CC2)nc1` [ACY-738], for which, in the test on 1405R3, the DSS stood at 5, the AUC was found to be 44.6 and the MIN came to 25.2. Moreover, in the test with 1405R3 (Homo sapiens), the negative-log EC50 (pEC50) is 5.59. In the test with 783C-6 (783C-6 DSRT analysis), the DSS is 5.2, the MIN turned out to be 24.1 and the AUC was found to be 46.6. Also, the pEC50 in the test with 783C-6 (Homo sapiens) is 5.61.

As for `O=C(NO)c1cnc(NC2(c3cccc(F)c3)CCCCC2)nc1` [ACY-775], in the test on 1405R3, the DSS worked out at 0, the AUC was 0.4, the MIN stood at 98.9 and the SLOPE is -0.9. Moreover, in the test on 783C-6 (783C-6 DSRT analysis), the DSS is 0, the MIN came out at 97.3, the AUC was found to be 2.4 and the SLOPE is recorded as -0.3.

For the compound `Cc1csc(-c2nnc(Nc3ccc(Oc4ncccc4-c4ccnc(N)n4)cc3)c3ccccc23)c1` [AMG-900], in the test with 1405R3, the DSS was 0.2, the AUC worked out at 29 and the MIN was determined as 82.3. Further, in the test on 783C-6 (783C-6 DSRT analysis), the DSS is 4.1, the MIN came to 63.4 and the AUC is reported as 52.5. For the same compound, in the test with 783C-6 (Homo sapiens), the negative-log EC50 (pEC50) is 6.32.

Consider `N[C@@H]1CCCN(c2c(/C=C3\SC(=O)NC3=O)cccc2-c2ccccc2)C1` [AZD1208], for which, in the test on 1405R3, the DSS turned out to be 0, the AUC is recorded as 16, the MIN is on record as 87 and the SLOPE is reported as -0.2. For the same compound, in the test on 783C-6 (783C-6 DSRT analysis), the DSS is given as 0, the MIN is listed as 87.6, the AUC is 19.2 and the SLOPE is reported as -0.1.

Consider `CN(C)Cc1c(C(=O)NCCOc2ccc(C(=O)NO)cc2)oc2ccccc12` [Abexinostat], for which, in the test with 1405R3, the DSS was 6, the AUC is given as 53 and the MIN was determined as 14.8. Also, in the test with 1405R3 (Homo sapiens), the negative-log EC50 (pEC50) is 5.62. Also, in the test on 783C-6 (783C-6 DSRT analysis), the DSS was 5.3, the MIN came out at 6.1 and the AUC was 48.2. For the same compound, the pEC50 with 783C-6 (Homo sapiens) is 5.50.

Take `COc1cc(Nc2ncc3c(n2)-c2ccc(Cl)cc2C(c2c(F)cccc2OC)=NC3)ccc1C(=O)O` [Alisertib]: in the test on 1405R3, the DSS turned out to be 0.1, the AUC amounted to 15.4 and the MIN turned out to be 89. In the test on 783C-6 (783C-6 DSRT analysis), the DSS was 3.7, the MIN worked out at 73.6 and the AUC was determined as 52.1. In the test with 783C-6 (Homo sapiens), the pEC50 is 6.97.

On to `CCN1CCN(C(=O)Cc2ccc(Nc3ncc(F)c(Nc4ccc(C(=O)Nc5ccccc5Cl)cc4)n3)cc2)CC1` [Aurora A Inhibitor I], for which, in the test with 1405R3, the DSS came to 3, the AUC is 28, the pEC50 is 5.55 and the MIN was determined as 50. For the same compound, in the test with 1405R3, the SLOPE was -2.5. The pEC50 with 783C-6 (setting [1]) was 5.60. Moreover, in the test on 783C-6 (783C-6 DSRT analysis), the DSS is on record as 4.6, the MIN is reported as 32, the AUC worked out at 41.2 and the SLOPE is recorded as -2.5.

On to `CNC(=O)c1ccccc1Sc1ccc2c(/C=C/c3ccccn3)n[nH]c2c1` [Axitinib], for which, in the test with 1405R3, the DSS came to 0, the AUC came out at 6.8 and the MIN amounted to 91.1. Further, in the test with 783C-6 (783C-6 DSRT analysis), the DSS is 0, the MIN amounted to 90.6 and the AUC is 2.8.

`Nc1ccccc1NC(=O)c1cnccn1` [BG45]: in the test with 1405R3, the DSS stood at 0.1, the AUC is reported as 36.3, the MIN worked out at 83.6 and the SLOPE was -0.1. For the same compound, in the test with 783C-6 (783C-6 DSRT analysis), the DSS is 2.2, the MIN was found to be 83.6, the AUC is reported as 49 and the SLOPE is -0.3.

For `CCN1CCN(c2ccc(Nc3cc(N(C)C(=O)Nc4c(Cl)c(OC)cc(OC)c4Cl)ncn3)cc2)CC1` [BGJ398], the figures for the DSS with 1405R3 and in the test on 783C-6 (783C-6 DSRT analysis) were 5.5 and 8, respectively. For the same compound, the AUC in the test with 1405R3 amounted to 50.1; in the test on 783C-6 (783C-6 DSRT analysis), 70. In addition, the MIN is 7.2 in the test on 1405R3 and 7.1 with 783C-6 (783C-6 DSRT analysis). Also, the negative logarithm of the EC50 (pEC50) with 1405R3 (Homo sapiens) is 5.53; in the test on 783C-6 (Homo sapiens), 5.75.

Take `CC[C@@H]1C(=O)N(C)c2cnc(Nc3ccc(C(=O)NC4CCN(C)CC4)cc3OC)nc2N1C1CCCC1` [BI 2536]: in the test with 1405R3, the DSS is 11.6, the AUC amounted to 98.4 and the MIN came out at 6.7. Also, the pEC50 in the test on 1405R3 (Homo sapiens) was 6.05. Moreover, in the test on 783C-6 (783C-6 DSRT analysis), the DSS is on record as 8.8, the MIN is reported as 52.4 and the AUC is 90. In addition, the negative logarithm of the EC50 (pEC50) with 783C-6 (Homo sapiens) was 6.86.

Turning to `COc1cc2nc(N3CCCN(C)CC3)nc(NC3CCN(Cc4ccccc4)CC3)c2cc1OC` [BIX 01294], in the test on 1405R3, the DSS came to 4.6, the AUC is recorded as 42.6 and the MIN turned out to be 12.3. For the same compound, the pEC50 in the test on 1405R3 (Homo sapiens) is 5.47. Moreover, in the test on 783C-6 (783C-6 DSRT analysis), the DSS is listed as 4.7, the MIN is reported as 28 and the AUC stood at 42.4. Also, the pEC50 in the test with 783C-6 (Homo sapiens) was 5.58.

In the case of `Nc1ccccc1NC(=O)CCCCCCC(=O)Nc1ccccc1` [BML-210], in the test on 1405R3, the DSS turned out to be 0, the AUC turned out to be 5.7, the MIN worked out at 96.1 and the SLOPE was -0.1. Also, in the test on 783C-6 (783C-6 DSRT analysis), the DSS is recorded as 0, the MIN is listed as 97, the AUC turned out to be 3.9 and the SLOPE is recorded as -2.5.

For `CC(=O)Nc1ccc(C(=O)Nc2ccc(F)cc2N)cc1` [BRD3308], in the test on 1405R3, the DSS is 0, the AUC was found to be 12.9, the MIN is reported as 91.7 and the SLOPE is listed as -0.1. In the test with 783C-6 (783C-6 DSRT analysis), the DSS was 0, the MIN is 86.9, the AUC is recorded as 3.9 and the SLOPE is given as -1.

In the case of `O=C(NO)c1cccc(C(=O)NCCc2ccccc2)c1` [BRD73954], in the test with 1405R3, the DSS stood at 0, the AUC is on record as 13.2, the MIN came to 91.5 and the SLOPE is given as -0.1. Besides, in the test on 783C-6 (783C-6 DSRT analysis), the DSS is recorded as 0, the MIN is 90.9, the AUC was 14 and the SLOPE is reported as -0.1.
